Where “and” joins values, the source holds several entries; their conditions need not be identical. Equal entries are not always repeated.
Assays:
[1] = system: HaCaT; experiment: IncuCyte cell confluence assay, keratinocytes; assay type: cell-based
Method: (§1) IncuCyte Analyzer-real time measurement of cell proliferation. The cell proliferation was measured using a label-free, noninvasive cellular confluence assay by IncuCyte Live-Cell Imaging Systems (Essen Bioscience, Ann Arbor, Mich., USA; IncuCyte FLR). This system enables collection of live cell images at 2 h intervals over several days. The IncuCyte Analyzer provides real-time cellular confluence data based on segmentation of high-definition phase-contrast images. The cell proliferation is expressed as an increase in percentage of cell confluence.

[2] = system: MiaPaCa-2 cells; experiment: IncuCyte label-free cell confluence proliferation assay; assay type: cell-based, human; conditions: PDAC / MiaPaCa-2, from two independent cell growth assays
Method: Cell proliferation was measured using a label-free, non-invasive cellular confluence assay employing the IncuCyte™ Live-Cell Imaging Analyzer (Essen Bioscience). This system provides real-time cellular confluence data based on segmentation of high definition phase contrast images. […] MiaPaCa2 cells were treated with Met (1 and 2 mM) or Mito-Met-C10 (1-2 μM).
as §1

[3] = system: AMPK; experiment: Immunoblot of phosphorylated AMPK Thr-172 relative to total AMPK, MiaPaCa-2 cells; assay type: cell-based, human
Method: (§2) In this example, the inventors have shown that the mito-met compounds of the present invention cause an increased AMPK activation in cancer cells. In preliminary experiments (FIG. 4), human MiaPaCa2 and murine FC1199 PDAC cells treated 30 min with 1 μM mito-met (MM), 1 mM Met, or the oligomycin positive control were lysed, and proteins size-separated on SDS-PAGE, transferred to PVDF, and probed with an antibody to phosphorylated AMPK Thr-172.
(§3) Immunoblotting. MiaPaCa-2 PDAC cells (1×10^6) were plated to 80% confluency in 60 mm dishes and then serum-starved for 5 hours. […] Cells were stimulated with oligomycin as a positive control. After stimulation, cells were washed twice in cold PBS and lysed using a modified RIPA buffer. Lysates were normalized for protein concentration, size separated using reducing SDS-PAGE, electro-transferred to PVDF membranes (Millipore) and then probed using primary and horseradish peroxidase-conjugated secondary antibodies. Antibodies against total or phosphorylated 5′ AMP-activated protein kinase (AMPK) were purchased from Cell Signaling Technology (Danvers, Mass.) and used at the manufacturer's recommended dilutions. Proteins were visualized by chemiluminescence with auto-exposure and quantified by densitometric analysis using the FluorChem HD2 from Cell Biosciences (Santa Clara, Calif.).
(§4) AMPK activation in Mito-Met and Met-treated PDAC cells. […]

[4] = system: FC1242-luc; experiment: Orthotopic syngeneic FC1242-luc engraftment model, tumor growth; assay type: in vivo, C57BL/6 mice; conditions: for in vivo tumor growth compared with Met: 1 mg/kg daily i.p.
Source text: In vivo studies and bioluminescence imaging.

[5] = system: MCF-10A cells; experiment: Radiosensitization, clonogenic survival after X-radiation, normal cells; assay type: cell-based; conditions: 1 μM, 24 h pretreatment
Method: Radiation experiments. […] The cells were then treated with X-radiation at a dose of 0, 2, 4, and 6 Gy. The control cells were treated with the same concentration of vehicle (0.1% DMSO) where appropriate. After irradiation, cells were suspended and seeded at various densities (100-8,000 cells per well) in 6-well plates for clonogenic assay as described above. The plates were kept within the incubator and media changed every 3-4 days for 2 weeks. Wells with 10-50 sufficiently large clones were chosen for calculating the cell survival fractions.
Effect of Mito-Met and Met on PDAC radiosensitivity. Both control cells and cells were pretreated for 24 h with 1 mM Met or Mito-Met (1 μM) prior to X-radiation. Cell survival was measured by a clonogenic assay.

[6] = Tissue accumulation in FC1242-luc orthotopic mice; assay type: in vivo; conditions: 1 mg/kg daily for two weeks; liver, kidney, spleen, tumor
Method: FIG. 19. Tissue accumulation of Mito-Met in in vivo FC1242-luc orthotopic mouse model. FC1242-luc orthotopic mice treated with Mito-Met10 (1 mg/kg) daily for 2 weeks. Tissue harvesting and extractions were performed 3 days after the last treatment. Quantitative data on concentrations of Mito-Met after normalization to tissue wet weight are represented as mean±SD, n=5.

[7] = system: MCF-10A; experiment: IncuCyte cell confluence assay, nonmalignant breast epithelial cells; assay type: cell-based
Method: as §1

[8] = system: AMPK; experiment: Immunoblot of phosphorylated AMPK Thr-172 relative to total AMPK, FC1199 cells; assay type: cell-based; conditions: murine FC1199, 1 μM, 30 min
Method: as §2, §3, §4

[9] = biological target: mitochondrial complex I (Homo sapiens, UniProt O75251+O75306+P03886); experiment: Complex I oxygen consumption (pyruvate/malate) in permeabilized cells, Seahorse XF96; assay type: cell-based
Sequence of mitochondrial complex I (O75306 34-463): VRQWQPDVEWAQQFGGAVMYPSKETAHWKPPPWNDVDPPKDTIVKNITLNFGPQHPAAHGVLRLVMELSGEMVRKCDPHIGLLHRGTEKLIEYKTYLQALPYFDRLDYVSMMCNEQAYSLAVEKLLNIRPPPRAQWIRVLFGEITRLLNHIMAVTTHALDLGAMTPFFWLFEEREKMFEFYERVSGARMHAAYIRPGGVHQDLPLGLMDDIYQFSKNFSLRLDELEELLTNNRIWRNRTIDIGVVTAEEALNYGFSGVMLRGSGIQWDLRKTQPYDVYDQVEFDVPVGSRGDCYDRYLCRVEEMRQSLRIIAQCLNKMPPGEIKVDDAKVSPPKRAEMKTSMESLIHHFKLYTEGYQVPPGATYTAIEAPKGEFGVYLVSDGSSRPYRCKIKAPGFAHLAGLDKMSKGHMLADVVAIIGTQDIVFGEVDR
Sequence of mitochondrial complex I (O75251 39-213): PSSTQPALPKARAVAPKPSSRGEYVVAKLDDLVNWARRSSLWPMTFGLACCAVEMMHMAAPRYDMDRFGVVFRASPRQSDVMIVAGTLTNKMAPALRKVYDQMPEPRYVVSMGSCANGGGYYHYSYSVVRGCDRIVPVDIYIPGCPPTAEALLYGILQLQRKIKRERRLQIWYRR
Sequence of mitochondrial complex I (P03886 whole entry): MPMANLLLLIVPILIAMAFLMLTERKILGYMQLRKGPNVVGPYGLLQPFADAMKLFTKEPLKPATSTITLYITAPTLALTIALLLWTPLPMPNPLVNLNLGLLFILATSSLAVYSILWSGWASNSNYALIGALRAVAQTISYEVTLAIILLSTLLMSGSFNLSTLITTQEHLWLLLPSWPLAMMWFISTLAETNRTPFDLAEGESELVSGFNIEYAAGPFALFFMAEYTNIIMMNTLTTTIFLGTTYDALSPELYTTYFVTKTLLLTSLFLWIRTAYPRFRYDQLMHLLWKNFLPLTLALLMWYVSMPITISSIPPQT
Sequence of mitochondrial complex I (O75489 37-264, further chain): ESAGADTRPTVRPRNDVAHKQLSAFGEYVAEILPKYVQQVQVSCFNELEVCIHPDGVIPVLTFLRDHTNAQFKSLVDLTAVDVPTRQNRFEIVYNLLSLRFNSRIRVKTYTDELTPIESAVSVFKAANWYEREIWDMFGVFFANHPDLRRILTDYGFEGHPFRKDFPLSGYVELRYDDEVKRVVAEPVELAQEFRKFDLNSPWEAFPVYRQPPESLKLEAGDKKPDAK
Sequence of mitochondrial complex I (P03897 whole entry, further chain): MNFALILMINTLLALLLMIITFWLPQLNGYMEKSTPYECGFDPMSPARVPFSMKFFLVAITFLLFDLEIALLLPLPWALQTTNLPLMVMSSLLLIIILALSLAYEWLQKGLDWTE
Method: Respiratory enzyme activity in intact and permeabilized cells. The mitochondrial function in intact and permeabilized pancreatic cancer cells was measured using a Seahorse XF96 Extracellular Flux Analyzer (Seahorse Bioscience, North Billerica, Mass., USA). Unless specified otherwise, assays in intact cells were performed as previously described. Measurement of mitochondrial respiratory complexes in permeabilized cells was performed according to the manufacturer's instructions (Seahorse Bioscience). Briefly, intact cells were permeabilized using 1 nM Plasma Membrane Permeabilizer (PMP, Seahorse Bioscience) immediately before oxygen consumption rate (OCR) measurement by XF96. The oxygen consumption derived from mitochondrial complex I or complex II activity was measured by providing different substrates to mitochondria, e.g., pyruvate/malate for complex I and succinate for complex II activity. Rotenone, malonate and antimycin A were used as specific inhibitors of mitochondrial complex I, II and III activities, respectively.
The oxygen consumption rate was measured using the permeabilized MiaPaCa-2 cells in MAS buffer supplemented with pyruvate. The use of permeabilized cells avoids differences in cellular uptake of compounds. […] We tested the effect of pretreating cells with Mito-Met10 or Met using the permeabilized model. MiaPaCa-2 cells were treated with Met and Mito-Met10 for 24 h and the oxygen consumption studies were performed in these cells after permeabilization.

[10] = system: MiaPaCa-2 cells; experiment: Clonogenic (colony formation) assay; assay type: cell-based, human
Method: Clonogenic assay. […] The plates were kept within the incubator and media changed every 3-4 days until the control cells formed sufficiently large clones. The cell survival fractions were calculated as previously described.
MiaPaCa-2 cells were treated with a range of concentrations as shown (FIG. 10C), and the number of colonies formed were counted.

Question: Which results are given for Br.N=C(N)NC(=N)NCCCCCCCCCC[P+](c1ccccc1)(c1ccccc1)c1ccccc1 [Mito-Met10]?
Answer: effect on cell confluence [1]: not significantly affected; fold more effective than metformin in inhibiting cell proliferation [2]: ~1,000 fold and > 1,000 fold; fold more effective than metformin in inhibiting cell proliferation ([2]; listed as mito-met-C10): ~1,000 fold; potency of AMPK activation relative to metformin ([3]; MiaPaCa-2): ~1,000 fold; increase in active AMPK (phosphorylated relative to total protein) ([3]; human MiaPaCa-2, 1 μM, 30 min): 1.5-2.5 fold; in vivo tumor growth compared with Met [4]: considerably more potent than Met; in vivo tumor growth compared with Met ([4]; listed as Mito-Met): considerably more effective than Met; therapeutic index relative to Met ([4]; mouse, in vivo): ~1,000 fold; times more effective than Met in abrogating PDAC tumor growth ([4]; mouse, in vivo): at least 100 times; radiosensitivity in normal cells [5]: no radiosensitivity was observed; tissue accumulation [6]: increased accumulation; effect on cell confluence [7]: not significantly affected; increase in active AMPK (phosphorylated relative to total protein) [8]: 1.5-2.5 fold; concentration giving significant decrease in OCR (complex I inhibition) ([9]; 24 h treatment, then permeabilized): 0.75 µM; fold more effective than Met in inhibiting complex I-mediated oxygen consumption ([9]; MiaPaCa-2): 2,000 fold; IC50 ([9]; read-out: IC50, mitochondrial complex I-mediated oxygen consumption, MiaPaCa-2, 24 h pretreatment, then permeabilized): 0.4 µM and ~0.43 µM; colony formation ([10]; 3 μM, 24 h): Almost no colony formation; IC50 ([10]; read-out: IC50, colony formation / survival fraction, MiaPaCa-2, 24 h treatment): 1.1 µM
